{
  "source": "patent US8906897B2",
  "about": "“Antimicrobial agents based on hemin derivatives” (Obschestvo S Ogranichennoi Otvetstvennostiyu …, priority 2009, dated 2014)",
  "assay_type_in_all_cases": "cell-based",
  "key": {"[1]": {"tested_on": "Staphylococcus aureus No. 100 KC", "experiment": "Specific activity against resistant bacterial strains", "experimental": "(§1) The tested agents were water-soluble hemin derivatives (compounds VII and XVIII) or DMSO-soluble derivatives (compounds VIII, XV, and XIV). Vancomycin was the reference compound. Each compound was tested in three replicas.\n(§2) Sterile single-use flat-bottomed 96-well plates, Petri dishes, pipettes, tips, and test tubes (Pan-Eco, Moscow) were used in the study.\n(§3) The nutritional media used were as follows. A working Mueller Hinton broth was prepared from dry media (Mueller Hinton broth, Acumedia, Baltimore) and sterilized by autoclaving at 121° C. for 15 min.\n(§4) Staphylococcus aureus was cultured on the Tripticase Soy Agar (BBL) commercially available dry medium. Enterococcus faecalis was cultured on the Columbia Agar Base (BBL) commercially available dry medium. These media were sterilized by autoclaving at 121° C. for 15 min.\n(§5) Bacterial inoculum was fixed and equal to 5×10^5 CFU/mL.\n(§6) For water-soluble compounds, wells from 2nd through 8th were added with the solvent (water) in an amount of 15 μL per well, then the 1st well was added with 30 μL of the stock solution of the tested compound in water with a concentration of 1×10^3M, and the concentration was adjusted to 0.007×10^3 M by serial twofold dilutions. A 10-μL portion was taken from every well, and 190 μL of the bacterial culture (10^5 CFU) was added per well.\n(§7) For DMSO-soluble compounds, wells from 2nd through 8th were added with the solvent (DMSO) in an amount of 10 μL per well, then the 1st well was added with 20 μL of the stock solution of the tested compound in […] with a concentration of 5×10^3M, and the concentration was adjusted to 0.039×10^3 M by serial twofold dilutions. A 2-μL portion was taken from each well, and 198 μL of the bacterial culture (10^5 CFU) was added per well.\n(§8) The control comprised wells free of tested compounds (culture growth control). In addition, purity control of nutritional media and solvents was used. Plates were incubated in a thermostat at 36° C. for 24 hours.\n(§9) Culture growth was evaluated visually by comparison of how microorganisms grew in the presence of tested compounds and in the absence of them. MSC (the minimal suppressing concentration) was set equal to the last dilution of a tested agent which suppressed bacterial culture growth."}, "[2]": {"tested_on": "Staphylococcus aureus No. 25923 ATCC", "experiment": "Specific activity against resistant bacterial strains", "experimental": "as §1, §2, §3, §4, §5, §6, §7, §8, §9"}, "[3]": {"tested_on": "Staphylococcus epidermidis No. 533", "experiment": "Specific activity against resistant bacterial strains", "settings": "St. epiderm 533; 24 h, 36° C.", "experimental": "as §1, §2, §3, §4, §5, §6, §7, §8, §9"}, "[4]": {"tested_on": "Enterococcus faecalis No. 559", "experiment": "Specific activity against resistant bacterial strains", "experimental": "as §1, §2, §3, §4, §5, §6, §7, §8, §9"}, "[5]": {"tested_on": "Enterococcus faecium No. 569", "experiment": "Specific activity against resistant bacterial strains", "settings": "Ent. faecium 569; 24 h, 36° C."}, "Candida albicans No. 927": {"tested_on": "Candida albicans No. 927", "experiment": "Antifungal activity, culture growth with pH indicator", "set-up": "key to Test culture growth at various dilutions of the agent: (−) No growth; the indicator is blue; (±) Weak growth; the indicator is yellow, but the precipitate of grown cells looks as a diffuse spot; (+) Strong growth; the indicator is yellow, and the cell precipitate looks as a compact spot", "experimental": "The subjects of action were Cryptococcus neoformans No. 3465 museum strain cells and Candida albicans No. 927 museum strain cells grown for one day on a glucose-peptone-yeast medium at 32° C. The reference compounds were the following antimycotics: pimafucin, amphotericin, and fluconazole.\nExperiments were carried out on round-bottomed 96-well plates (Lenmedpolimer) in two replicas. To the first column (0), added was 10 μL of the stock solution of a water-soluble agent with concentrations of 10^−2 to 10^−3 mol/L; to the second column, added was also the same 10 μL plus 10 μL of the solvent corresponding to the given compound, suspended, 10 μL was transferred to the next well, and so on to the 8th well of the row. Stock solutions of water-insoluble compounds of general formula (I) (compounds V, VIII, XII, XIII, XIV, and hemin) were prepared in DMSO and were diluted with DMSO and the medium. DMSO concentrations in the reaction mixture in a well were ≦5%.\nThen, to every well added was 190 μL of a Cr. neoformans cell culture suspension in a synthetic nutritional medium (so that the final cell concentration was approximately 10^3 CFU/mL), this medium containing Bromocresol Blue as a pH-indicator (pH: 5.5; indicator color: blue). As pH reduced to 4.5, the indicator in the culture changed its color to yellow, thereby indicating fungal cell growth. The synthetic medium comprised the following components: salts, amino acids, microelements, vitamins, an antibiotic, and glucose (30 components altogether) [Yarrow, D., “Methods for the Isolation, Maintenance and Identification of Yeasts,” in: The Yeasts. A Taxonomic Study, Ed. by Kurtsman, C. P, and Fell, M., Elsevier, 1998, pp. 77-100]. After being inoculated with a Cr. neoformans cell suspension, the plate was incubated at 32° C. for 1 h with stirring, then transferred to a stationary thermostat and incubated for two and five days at 27° C. After being inoculated with a C. albicans cell suspension, the plates were incubated for 1 h at 32° C. with stirring, then transferred to a stationary thermostat and incubated for one and four days at 27° C."}, "Cryptococcus humicolus": {"tested_on": "Cryptococcus humicolus", "experiment": "Antifungal activity against cryptococcosis causative agent (MSC)"}, "[6]": {"tested_on": "Enterococcus faecalis BKM B-871", "experiment": "Antibacterial activity (MIC/MBC), serial dilutions in liquid MH medium", "experimental": "(§10) The antibacterial activity of compounds was determined against Bacillus subtilis BKM B-501, Staphylococcus aureus 209P, Enterococcus faecalis BKM B-871, and Micrococcus luteus BKM Ac-2230 strains (acquired from the All-Russia Collection of Microorganisms at the Institute for Biochemistry and Physiology of Microorganisms, Russian Academy of Sciences). The main parameters characterizing the antibacterial activity are the minimal inhibitory concentration (MIC) and minimal bactericidal concentration (MBC). […] MBC is the least concentration that causes the death of all cells.\n(§11) MIC was quantified by inhibiting culture growth in a liquid medium with serial dilutions of compounds using a modified procedure [Amsterdam, D., “Susceptibility Testing of Antimicrobials in Liquid Media,” in Antibiotics in Laboratory Medicine, Ed. by Lorian, V., 4th ed., Baltimore: Williams and Wilkins, 1996, pp. 52-111].\n(§12) Bacteria were cultured and tests were carried out on an MH liquid medium (Mueller-Hinton medium: a dry extract of beef broth, 4 g/L; starch, 1.5 g/L; casein hydrolyzate, 17.5 g/L; Sigma-Fluka Catalog No. 70192) at 37° C., 100% humidity, and under stirring. Cultures (4th through 7th receeding post-thawing) in the exponential growth phase were used for tests.\n(§13) Therefore, a correction for absorption was applied in estimating the optical density of bacterial suspensions for each compound with account for its concentration in the well.\n(§14) The protocol for experimental antibacterial activity determination for tested compounds was as follows. A cryovial with the test strain culture (Bacillus subtilis BKIVI B-501, Staphylococcus aureus 209P, Enterococcus faecalis BKM B-871, or Micrococcus luteus BKIVI Ac-2230) in a medium with 7% DMSO stored in liquid nitrogen, was rapidly defrosted, and 1.5 mL of the fresh MH medium was inoculated with 100 μL of the cell suspension. Cells were grown for one day at 37° C. and stirred on an orbital shaker at 150 rpm. The morphologic features of the strain and the absence of contamination with foreign bacteria were verified by: (a) inoculation on an agarized (15 g/L agar) MH medium and observation of the shape and color of the grown colonies and (b) examination of characteristic morphologic features under a microscope (Mikmed-2, LOMO, Russia) equipped with a 40× objective lens. Further bacteria were cultured in 1 mL of the liquid MH medium at 37° C. under stirring. The cells were reseeded every day. Cell cultures were used in tests starting with 3rd reseeding and ending with 6th one.\n(§15) For testing, 5 μL of a bacterial suspension in the stationary growth phase was transferred to 1 mL of a sterile MH medium and incubated until the exponential growth phase was attained (3 to 5 h, 37° C., stirring at 150 rpm). To estimate the microorganisms concentration, the optical density (A) of the resulting bacterial culture was measured at a wavelength of 595 nm. The value of A=0.2 measured from a […] portion of the cell suspension in a 96-well plate, with a correction for the medium absorption applied, was set to correspond to 4×10^8 cells/mL for both strains used. Taking into account the cell concentration measurements, the suspension was diluted with the MH medium to a concentration of from 5×10^4 to 1×10^5 cells/mL and transferred to a sterile 96-well plate in an amount of 100 μL, per well. Then, the cells were added with tested compounds and twofold serial dilutions of these compounds in plate's wells were made.\n(§16) The controls used were: 100 μL of an additive-free bacterial culture (four wells); a bacterial culture added with 1% DMSO or water in the same volume as in the wells with the maximal concentration of the tested compounds (four wells); and 100 μL of the sterile MH medium without bacteria and without tested compounds for control of occasional contamination in the plate (four wells)."}, "[7]": {"tested_on": "Bacillus subtilis BKM B-501", "experiment": "Antibacterial activity (MIC/MBC), serial dilutions in liquid MH medium", "experimental": "as §10, §11, §12, §13, §14, §15, §16"}, "[8]": {"tested_on": "Micrococcus luteus BKM Ac-2230", "experiment": "Antibacterial activity (MIC/MBC), serial dilutions in liquid MH medium", "experimental": "as §10, §11, §12, §13, §14, §15, §16"}, "[9]": {"tested_on": "Staphylococcus aureus 209P", "experiment": "Antibacterial activity (MIC/MBC), serial dilutions in liquid MH medium", "experimental": "as §10, §11, §12, §13, §14, §15, §16"}},
  "data": [
    {"molecule": "C=CC1=C(C)c2cc3[n-]c(cc4nc(cc5[n-]c(cc1n2)c(C)c5CCC(=O)N[C@@H](CCCNC(=N)N)C(=O)N[C@@H](CCCNC(=N)N)C(=O)OC)C(CCC(=O)N[C@@H](CCCNC(=N)N)C(=O)N[C@@H](CCCNC(=N)N)C(=O)OC)=C4C)c(C)c3C=C.[Cl-].[Fe+3]", "note": "[Compound XXI, 6,7-bis[(N^α-L-Arginyl Methyl Ester)-L-Arginyl]-Protohemin IX]", "values": [
      {"measurement": "MICs for hemin derivatives against Gr+ strains", "setting": "[1]; St. aureus 100 KC, 24 h, 36° C.", "result": 50, "unit": "µM"},
      {"measurement": "MICs for hemin derivatives against Gr+ strains", "setting": "[2]; St. aureus 25923, 24 h, 36° C.", "result": 50, "unit": "µM"},
      {"measurement": "MICs for hemin derivatives against Gr+ strains", "setting": "[3]", "result": 50, "unit": "µM"},
      {"measurement": "MICs for hemin derivatives against Gr+ strains", "setting": "[4]; Ent. faecalis 559, 24 h, 36° C.", "result": 50, "unit": "µM"},
      {"measurement": "MICs for hemin derivatives against Gr+ strains", "setting": "[5]", "result": ">50", "unit": "µM"}
    ]},
    {"molecule": "CN[C@H](CC(C)C)C(=O)N[C@H]1C(=O)N[C@@H](CC(N)=O)C(=O)N[C@H]2C(=O)N[C@H]3C(=O)N[C@H](C(=O)N[C@H](C(=O)O)c4cc(O)cc(O)c4-c4cc3ccc4O)[C@H](O)c3ccc(c(Cl)c3)Oc3cc2cc(c3O[C@@H]2O[C@H](CO)[C@@H](O)[C@H](O)[C@H]2O[C@H]2C[C@](C)(N)[C@H](O)[C@H](C)O2)Oc2ccc(cc2Cl)[C@H]1O", "note": "[Vancomycin, reference compound]", "values": [
      {"measurement": "MIC", "setting": "[1]; Staphylococcus aureus, NO.100KC, read-out: MICs for Vancomycin", "result": 1, "unit": "µg/mL"},
      {"measurement": "MIC", "setting": "[2]; Staphylococcus aureus, NO.25923ATCC, read-out: MICs for Vancomycin", "result": 1, "unit": "µg/mL"},
      {"measurement": "MIC", "setting": "[4]; Enterococcus faecalis, NO.559, read-out: MICs for Vancomycin", "result": 1, "unit": "µg/mL"}
    ]},
    {"molecule": "Protohemin IX 6(7)-Mono(-Val-Gly-Ala-D-Leu-Ala-D-Val-Val-D-Val-Trp-D-Leu-X-D-Leu-Trp-D-Leu-Trp-NH—CH2CH2OH)amide [Compound XII]", "values": [
      {"measurement": "Test culture growth at various dilutions of the agent", "setting": "Candida albicans No. 927; dilution 0: 1 × 10^−4 M", "result": "±"},
      {"measurement": "Test culture growth at various dilutions of the agent", "setting": "Candida albicans No. 927; dilution : 2 of 1 × 10^−4 M", "result": "±"},
      {"measurement": "Test culture growth at various dilutions of the agent", "setting": "Candida albicans No. 927; dilution : 4 of 1 × 10^−4 M", "result": "±"},
      {"measurement": "Test culture growth at various dilutions of the agent", "setting": "Candida albicans No. 927; dilution : 8 of 1 × 10^−4 M", "result": "+"},
      {"measurement": "Test culture growth at various dilutions of the agent", "setting": "Candida albicans No. 927; dilution : 16 of 1 × 10^−4 M", "result": "+"},
      {"measurement": "Test culture growth at various dilutions of the agent", "setting": "Candida albicans No. 927; dilution : 32 of 1 × 10^−4 M", "result": "+"},
      {"measurement": "Test culture growth at various dilutions of the agent", "setting": "Candida albicans No. 927; dilution : 64 of 1 × 10^−4 M", "result": "+"},
      {"measurement": "MSC", "setting": "Cryptococcus humicolus", "result": 12.5, "unit": "µM"},
      {"measurement": "MBC", "setting": "[6]", "result": ">50^3 μM"},
      {"measurement": "MIC", "setting": "[6]; 20 h, MH medium", "result": 50, "unit": "µM"},
      {"measurement": "MBC", "setting": "[7]", "result": "38 ± 13", "unit": "µM"},
      {"measurement": "MIC", "setting": "[7]; 20 h, MH medium", "result": "38 ± 13", "unit": "µM"},
      {"measurement": "MBC", "setting": "[8]", "result": ">6.3^3 μM"},
      {"measurement": "MIC", "setting": "[8]; 20 h, MH medium", "result": 1.6, "unit": "µM"},
      {"measurement": "MBC", "setting": "[9]", "result": ">50^2 μM"},
      {"measurement": "MIC", "setting": "[9]; 20 h, MH medium", "result": 50, "unit": "µM"}
    ]}
  ]
}
